Laboratory results published in US20240307382A1, “MODULATORS OF THE INTEGRATED STRESS PATHWAY” (Calico Life Sciences LLC, priority 2017, published 2024).

Test system: HEK293T cells carrying the ATF4 luciferase reporter
Experiment: ATF4-Luc assay (ATF4 luciferase reporter, tunicamycin-treated cells)
Type: cell-based
Conditions: Homo sapiens, HEK-293T, 1 μg/mL tunicamycin, 7 hours
Procedure: In order to test exemplary compounds of the invention in a cellular context, a stable VWMD cell line was first constructed. The ATF4 reporter was prepared by fusing the human full-length ATF4 5′-UTR (NCBI Accession No. BC022088.2) in front of the firefly luciferase (FLuc) coding sequence lacking the initiator methionine as described in Sidrauski et al (eLife 2013). The construct was used to produce recombinant retroviruses using standard methods and the resulting viral supermatant was used to transduce ITEK293T cells, which were then subsequently selected with puromycin to generate a stable cell line.
HTEK293T cells carrying the ATF4 luciferase reporter were plated on polylysine coated 384-well plates (Greiner Bio-one) at 30,000 cells per well. Cells were treated the next day with 1 μg/mL tunicamycin and 200 nM of a compound of Formula (I) for 7 hours. Luminescence was measured using One Glo (Promega) as specified by the manufacturer. Cells were maintained in DMEM with L-glutamine supplemented with 10% heat-inactivated FBS (Gibco) and Antibiotic-Antimycotic solution (Gibco).
Table 2 below summarizes the EC50 data obtained using the ATF4-Luc assay for exemplary compounds of the invention.

| Compound | EC50 |
| --- | --- |
| O=C(COc1ccc(Cl)c(F)c1)NC12CCC(NC(=O)c3ccc(OC(F)(F)F)cn3)(CC1)CC2 [Compound 997, N-{4-[2-(4-chloro-3-fluorophenoxy)acetamido]bicyclo[2.2.2]octan-1-yl}-5-(trifluoromethoxy)pyridine-2-carboxamide] | 50 to 250 nM |
| O=C(COc1ccc(Cl)c(F)c1)NC12CCC(NC(=O)c3ccc4cc(F)ccc4n3)(CC1)C[C@@H]2O [Compound 998, N-{(3S)-4-[2-(4-chloro-3-fluorophenoxy)acetamido]-3-hydroxybicyclo[2.2.2]octan-1-yl}-6-fluoroquinoline-2-carboxamide] | < 50 nM |
| O=C(COc1ccc(Cl)c(Cl)c1)NC12CCC(NC(=O)c3ccc4cc(F)ccc4n3)(CC1)C[C@@H]2O [Compound 999, N-{(3S)-4-[2-(3,4-dichlorophenoxy)acetamido]-3-hydroxybicyclo[2.2.2]octan-1-yl}-6-fluoroquinoline-2-carboxamide] | < 50 nM |
| O=C(COc1ccc(Cl)c(Cl)c1)NC12CCC(NC(=O)c3ccc(C(F)(F)F)o3)(CC1)C[C@@H]2O [Compound 1000, N-{(3S)-4-[2-(3,4-dichlorophenoxy)acetamido]-3-hydroxybicyclo[2.2.2]octan-1-yl}-5-(trifluoromethyl)furan-2-carboxamide] | < 50 nM |
| O=C(COc1ccc(Cl)c(Cl)c1)NC12CCC(NC(=O)c3ccc(OC(F)(F)F)nc3)(CC1)C[C@@H]2O [Compound 1001, N-{(3S)-4-[2-(3,4-dichlorophenoxy)acetamido]-3-hydroxybicyclo[2.2.2]octan-1-yl}-6-(trifluoromethoxy)pyridine-3-carboxamide] | < 50 nM |
| Cc1cc(C(=O)NC23CCC(NC(=O)COc4ccc(Cl)c(Cl)c4)(CC2)[C@@H](O)C3)sn1 [Compound 1002, N-{(3S)-4-[2-(3,4-dichlorophenoxy)acetamido]-3-hydroxybicyclo[2.2.2]octan-1-yl}-3-methyl-1,2-thiazole-5-carboxamide] | < 50 nM |
| O=C(COc1ccc(Cl)c(Cl)c1)NC12CCC(NC(=O)c3cc(CO)ccn3)(CC1)C[C@@H]2O [Compound 1003, N-{(3S)-4-[2-(3,4-dichlorophenoxy)acetamido]-3-hydroxybicyclo[2.2.2]octan-1-yl}-4-(hydroxymethyl)pyridine-2-carboxamide] | < 50 nM |
| O=C(COc1ccc(Cl)c(F)c1)NC12CCC(NC(=O)c3coc(C(F)(F)F)n3)(CC1)C[C@@H]2O [Compound 1004, N-{(3S)-4-[2-(4-chloro-3-fluorophenoxy)acetamido]-3-hydroxybicyclo[2.2.2]octan-1-yl}-2-(trifluoromethyl)-1,3-oxazole-4-carboxamide] | < 50 nM |
| O=C(COc1ccc(Cl)c(Cl)c1)NC12CCC(NC(=O)c3cnc4cc(F)ccc4n3)(CC1)C[C@@H]2O [Compound 1005, N-{(3S)-4-[2-(3,4-dichlorophenoxy)acetamido]-3-hydroxybicyclo[2.2.2]octan-1-yl}-6-fluoroquinoxaline-2-carboxamide] | < 50 nM |
| O=C(COc1ccc(Cl)c(F)c1)NC12CCC(NC(=O)c3cnc4cc(F)ccc4n3)(CC1)C[C@@H]2O [Compound 1006, N-{(3S)-4-[2-(4-chloro-3-fluorophenoxy)acetamido]-3-hydroxybicyclo[2.2.2]octan-1-yl}-6-fluoroquinoxaline-2-carboxamide] | < 50 nM |
| Cn1nc(C(=O)NC23CCC(NC(=O)COc4ccc(Cl)c(Cl)c4)(CC2)[C@@H](O)C3)cc1C(F)(F)F [Compound 1007, N-{(3S)-4-[2-(3,4-dichlorophenoxy)acetamido]-3-hydroxybicyclo[2.2.2]octan-1-yl}-1-methyl-5-(trifluoromethyl)-1H-pyrazole-3-carboxamide] | < 50 nM |
| O=C(COc1ccc(Cl)c(Cl)c1)NC12CCC(NC(=O)c3cnc4ccccc4n3)(CC1)C[C@@H]2O [Compound 1008, N-{(3S)-4-[2-(3,4-dichlorophenoxy)acetamido]-3-hydroxybicyclo[2.2.2]octan-1-yl}quinoxaline-2-carboxamide] | < 50 nM |
| O=C(COc1ccc(Cl)c(Cl)c1)NC12CCC(NC(=O)c3coc(C(F)(F)F)n3)(CC1)C[C@@H]2O [Compound 1009, N-{(3S)-4-[2-(3,4-dichlorophenoxy)acetamido]-3-hydroxybicyclo[2.2.2]octan-1-yl}-2-(trifluoromethyl)-1,3-oxazole-4-carboxamide] | < 50 nM |
| Cn1nc(C(F)F)cc1C(=O)NC12CCC(NC(=O)COc3ccc(Cl)c(Cl)c3)(CC1)[C@@H](O)C2 [Compound 1010, N-{(3S)-4-[2-(3,4-dichlorophenoxy)acetamido]-3-hydroxybicyclo[2.2.2]octan-1-yl}-3-(difluoromethyl)-1-methyl-1H-pyrazole-5-carboxamide] | < 50 nM |
| O=C(COc1ccc(Cl)c(Cl)c1)NC12CCC(NC(=O)c3cnc(C(F)(F)F)cn3)(CC1)C[C@@H]2O [Compound 1011, N-{(3S)-4-[2-(3,4-dichlorophenoxy)acetamido]-3-hydroxybicyclo[2.2.2]octan-1-yl}-5-(trifluoromethyl)pyrazine-2-carboxamide] | 50 to 250 nM |
| CC(C)c1cc(C(=O)NC23CCC(NC(=O)COc4ccc(Cl)c(Cl)c4)(CC2)[C@@H](O)C3)on1 [Compound 1012, N-{(3S)-4-[2-(3,4-dichlorophenoxy)acetamido]-3-hydroxybicyclo[2.2.2]octan-1-yl}-3-(propan-2-yl)-1,2-oxazole-5-carboxamide] | < 50 nM |
| O=C(COc1ccc(Cl)c(Cl)c1)NC12CCC(NC(=O)c3cc(C4CC4)no3)(CC1)C[C@@H]2O [Compound 1013, 3-cyclopropyl-N-{(3S)-4-[2-(3,4-dichlorophenoxy)acetamido]-3-hydroxybicyclo[2.2.2]octan-1-yl}-1,2-oxazole-5-carboxamide] | < 50 nM |
| O=C(COc1ccc(Cl)c(Cl)c1)NC12CCC(NC(=O)c3ccc(N4CCCC4)cn3)(CC1)C[C@@H]2O [Compound 1014, N-{(3S)-4-[2-(3,4-dichlorophenoxy)acetamido]-3-hydroxybicyclo[2.2.2]octan-1-yl}-5-(pyrrolidin-1-yl)pyridine-2-carboxamide] | > 2000 nM |
| Cc1cc(C(=O)NC23CCC(NC(=O)COc4ccc(F)c(Cl)c4)(CC2)[C@@H](O)C3)on1 [Compound 1015, N-{(3S)-4-[2-(3-chloro-4-fluorophenoxy)acetamido]-3-hydroxybicyclo[2.2.2]octan-1-yl}-3-methyl-1,2-oxazole-5-carboxamide] | 50 to 250 nM |
| Cc1cc(C(=O)NC23CCC(NC(=O)COc4ccc(Cl)cc4)(CC2)[C@@H](O)C3)on1 [Compound 1016, N-{(3S)-4-[2-(4-chlorophenoxy)acetamido]-3-hydroxybicyclo[2.2.2]octan-1-yl}-3-methyl-1,2-oxazole-5-carboxamide] | 50 to 250 nM |
| O=C(COc1ccc(Cl)c(Cl)c1)NC12CCC(NC(=O)c3cc(C(F)(F)F)no3)(CC1)C[C@@H]2O [Compound 1017, N-{(3S)-4-[2-(3,4-dichlorophenoxy)acetamido]-3-hydroxybicyclo[2.2.2]octan-1-yl}-3-(trifluoromethyl)-1,2-oxazole-5-carboxamide] | < 50 nM |
| O=C(COc1ccc(Cl)c(F)c1)NC12CCC(NC(=O)c3cc(-c4ccccc4)no3)(CC1)C[C@@H]2O [Compound 1018, N-{(3S)-4-[2-(4-chloro-3-fluorophenoxy)acetamido]-3-hydroxybicyclo[2.2.2]octan-1-yl}-3-phenyl-1,2-oxazole-5-carboxamide] | < 50 nM |
| CCc1c(C(=O)NC23CCC(NC(=O)COc4ccc(Cl)c(F)c4)(CC2)[C@@H](O)C3)nn(C)c1-c1ccccc1 [Compound 1019, N-{(3S)-4-[2-(4-chloro-3-fluorophenoxy)acetamido]-3-hydroxybicyclo[2.2.2]octan-1-yl}-4-ethyl-1-methyl-5-phenyl-1H-pyrazole-3-carboxamide] | 1000 to 2000 nM |
| Cn1nc(-c2ccccc2)cc1C(=O)NC12CCC(NC(=O)COc3ccc(Cl)c(F)c3)(CC1)[C@@H](O)C2 [Compound 1020, N-{(3S)-4-[2-(4-chloro-3-fluorophenoxy)acetamido]-3-hydroxybicyclo[2.2.2]octan-1-yl}-1-methyl-3-phenyl-1H-pyrazole-5-carboxamide] | < 50 nM |
| Cc1oc(-c2ccccc2)cc1C(=O)NC12CCC(NC(=O)COc3ccc(Cl)c(F)c3)(CC1)[C@@H](O)C2 [Compound 1021, N-{(3S)-4-[2-(4-chloro-3-fluorophenoxy)acetamido]-3-hydroxybicyclo[2.2.2]octan-1-yl}-2-methyl-5-phenylfuran-3-carboxamide] | < 50 nM |
| O=C(COc1ccc(Cl)c(F)c1)NC12CCC(NC(=O)c3cc(-c4ccccc4)[nH]n3)(CC1)C[C@@H]2O [Compound 1022, N-{(3S)-4-[2-(4-chloro-3-fluorophenoxy)acetamido]-3-hydroxybicyclo[2.2.2]octan-1-yl}-5-phenyl-1H-pyrazole-3-carboxamide] | < 50 nM |
| Cn1ncc2cc(C(=O)NC34CC(NC(=O)COc5ccc(Cl)c(F)c5)(C3)C4)ccc21 [Compound 1023, N-{3-[2-(4-chloro-3-fluorophenoxy)acetamido]bicyclo[1.1.1]pentan-1-yl}-1-methyl-1H-indazole-5-carboxamide] | 250 to 1000 nM |
| O=C(COc1ccc(Cl)c(Cl)c1)NC12CCC(NC(=O)c3ccc(OC(F)(F)F)cn3)(CC1)C[C@@H]2O [Compound 1024, N-{(3S)-4-[2-(3,4-dichlorophenoxy)acetamido]-3-hydroxybicyclo[2.2.2]octan-1-yl}-5-(trifluoromethoxy)pyridine-2-carboxamide] | < 50 nM |
